These results are taken from patent US20030134859A1 (SANKYO COMPANY, LIMITED, priority 2000, published 2003).

The structures appear in SMILES notation.

For this test, the system named is ABCA1 mRNA. Description: Quantitative analysis of ABCA1 mRNA (TaqMan PCR) in RAW264.7 cells. The test is classed as cell-based, mouse. The conditions noted are these: 100 nM test compound, 24 hr, normalised to β-actin, DMSO = 100. As to the method: The mouse monocyte/macrophage cell line, RAW264.7 (ATCC TIB71) was purchased from Dainippon Pharmaceutical Co., Ltd. As the medium, the Dulbecco's modified Eagle's medium (DMEM medium; GIBCO, Cat. No. 11995-040) containing bovine fetal serum (the final concentration: 10% (v/v), MOREGATE, lot No. 474030), penicillin G (the final concentration: 50 units/mL, GIBCO) and streptomycin (the final concentration: 20 μg/mL, GIBCO) was used.
The culture of RAW264.7 cells was carried out in a CO2 incubator (37° C., 95% R.H., 5% of CO2).
A 2 ml volume of RAW264.7 cells suspension (1×10^6 cells/mL) was plated in each well of a 6-well plate (2×10^6 cells/well) and the cells were incubated for 2 hr in a CO2 incubator. The test compounds dissolved in DMSO were diluted with DMEM medium by 20 times, and were added to the wells at a volume of 4 μL/well (final concentration of the test compound: 100 nM). As the control, the DMSO solution was diluted with the DMEM medium by 20 times, and was added to the wells at the volume of 4 μL/well. After the cells were cultured in a CO2 incubator for 24 hr, the medium was removed and the total RNA was purified by using an RNeasy Mini Kit (Qiagen), according to the protocol attached. The concentration of the RNA in the samples obtained was calculated from absorbance at 260 nm (A260=1=40 μg/ml). Six (6) μg of total RNA were diluted with RNAase-free water so as to be 22.6 μL, which was heated at 65° C. for 10 min, and then was cooled on ice. The RNA in the solution was used as the template, and the cDNA was synthesized by using a First-strand cDNA Synthesis Kit (Amersham Pharmacia Biotech). In this reaction, a solution was prepared having the following composition and was reacted at 37° C. for 1 hr.
After the reaction, 3 μL of soution were collected from each of the reaction mixtures of the test compound-treated cell samples and that of the control cell samples. The mixed solution was used as the standard solution. The standard solution and each reaction solution were purified with a Chroma Spin-100+DEPC-H2O Column according to the protocol attached, and they were used as the template for TaqMan PCR (Template). In order to draw the calibration curve, the standard solution was diluted by every 5 times for 5 steps and each solution was used for TaqMan PCR. TaqMan PCR was carried out in ABCA1 and β-actin. As Primers for use in the TaqMan PCR, 4 oligonucleotides (abca1 forward (S3), abca1 reverse (AS3), β-actin forward (S4) and β-actin reverse (AS4)) were designed which are shown in sequences No. 5 to 8 in the sequence table described later. The synthesis and purification of these 4 oligomers was ordered from Amersham Pharmacia Biotech Co.
As FAM-TAMRA labelled TaqMan Probe, 2 kinds of oligonucleotides (abca1 (p1) and β-actin (p2)) were designed and were ordered from Applied Biosystems Co. to synthesize and purify.
The following reaction mixture of ABCA1 or β-actin was divided into 2 wells of a MicroAmp Optical 96-well Reaction Plate (Applied Biosystem Co.). TaqMan Universal PCR Master Mix was purchased from Applied Biosystem Co.
The plate was covered with a MicroAmp Optical Cap (Applied Biosystems Co.), and TaqMan PCR was carried out by using an ABI PRISM 7,700 Sequence Detection System (Applied Biosystem Co.) under the following conditions:
An analysis was made according to the procedures described in the manual of Sequence Detection Software (Applied Biosystem Co.) and the increased rate of ABCA1 mRNA due to the test compound was calculated based on the following equation.
A: Amount of the ABCA1 mRNA in the presence of the test compound
B: Amount of the β-actin mRNA in the presence of the test compound
C: Amount of the ABCA1 mRNA in the presence of DMSO
D: Amount of the β-actin mRNA in the presence of DMSO
Increase Rate (%) of ABCA1 mRNA=(A/B)/(C/D)×100
A general note: In qPCR the cycle at which signal appears reflects the starting amount.
With `CCCCCCCCN(CCC)c1ccc(-c2ccc(NC(=O)c3cc([N+](=O)[O-])ccc3Cl)cc2)cc1` [Example 224, N-[4-[4-(N-Octyl-N-propylamino)phenyl]phenyl]-(2-chloro-5-nitrophenyl)carboxamide], the “Rate of Increase (%) of ABCA1 mRNA” value was 179.0%.

Consider `O=C(Nc1ccc(CCNC(=S)Nc2cccnc2)cc1)c1cc([N+](=O)[O-])ccc1Cl` [Example 273, N-[4-[2-(Pyridin-3-yl)aminothiocarbonylaminoethyl]phenyl]-(2-chloro-5-nitrophenyl)carboxamide], for which the “Rate of Increase (%) of ABCA1 mRNA” value is 146.0%.

On to `CCCCCCCCN(CCCC)c1ccc(-c2ccc(NC(=O)c3cc([N+](=O)[O-])ccc3Cl)cc2)cc1.Cl` [Example 223, N-[4-[4-(N-Butyl-N-octylamino)phenyl]phenyl]-(2-chloro-5-nitrophenyl)carboxamide mono-hydrochloride], for which the “Rate of Increase (%) of ABCA1 mRNA” value was found to be 204.0%.
